The Ki is the dissociation constant of the complex between target and ligand, obtained from inhibition or displacement.

In the experiment the target is Protease (Human immunodeficiency virus 1, UniProt Q9YQ12). The experiment is described as follows: Inhibition of HIV1 recombinant protease expressed in Escherichia coli.

Structures are written as SMILES.

Sequence of Protease (Q9YQ12 whole entry): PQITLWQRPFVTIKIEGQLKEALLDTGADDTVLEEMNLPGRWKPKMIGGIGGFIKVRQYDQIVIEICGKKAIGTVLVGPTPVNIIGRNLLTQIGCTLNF

For `O=[N+]([O-])c1ccc(S(=O)(=O)N(Cc2ccccc2)[C@H]2CNC[C@@H]2N(Cc2ccccc2)S(=O)(=O)c2ccc([N+](=O)[O-])cc2)cc1`, the Ki came out at 1720 nM. With `Cc1ccccc1S(=O)(=O)N(Cc1ccccc1)[C@H]1CNC[C@@H]1N(Cc1ccccc1)S(=O)(=O)c1ccccc1C` the figure was 670 nM. For `O=S(=O)(c1ccccc1)N(Cc1ccc(Br)cc1)[C@H]1CNC[C@@H]1N(Cc1ccc(Br)cc1)S(=O)(=O)c1ccccc1`, the Ki was found to be 460 nM. Consider `C=CCN([C@H]1CNC[C@@H]1N(CC=C)S(=O)(=O)c1ccccc1)S(=O)(=O)c1ccccc1`, for which the Ki is 12300 nM. Take `C=C(C)CN([C@H]1CNC[C@@H]1N(CC(=C)C)S(=O)(=O)c1ccccc1)S(=O)(=O)c1ccccc1`: the Ki was found to be 74700 nM. The result for `CC(C)=CCN([C@H]1CNC[C@@H]1N(CC=C(C)C)S(=O)(=O)c1ccccc1)S(=O)(=O)c1ccccc1` reads 1570 nM.

Regarding `O=S(=O)(c1ccccc1)N(Cc1ccc(C(F)(F)F)cc1)[C@H]1CNC[C@@H]1N(Cc1ccc(C(F)(F)F)cc1)S(=O)(=O)c1ccccc1`, the inhibitory constant (Ki) was 800 nM.
